From PMC7044277 (Nature Communications, 2020)
Values joined by “and” are separate entries in the source; they are usually repeats but may differ in a detail not shown here. Equal entries are not always repeated.

Legend:
[1] = molecular target: DRD2 (D2 long receptor) wild-type (Homo sapiens, UniProt P14416); experiment: Radioligand competition binding, [3H]-N-methylspiperone, HEK293T membranes; conditions: DRD2; [3H]-methylspiperone (0.8-1.0 nM); read-out: Ki
DRD3 wild-type = DRD3 wild-type (Homo sapiens, UniProt P35462); experiment: Radioligand competition binding, [3H]-N-methylspiperone
Sequence of DRD3 wild-type (P35462 whole entry): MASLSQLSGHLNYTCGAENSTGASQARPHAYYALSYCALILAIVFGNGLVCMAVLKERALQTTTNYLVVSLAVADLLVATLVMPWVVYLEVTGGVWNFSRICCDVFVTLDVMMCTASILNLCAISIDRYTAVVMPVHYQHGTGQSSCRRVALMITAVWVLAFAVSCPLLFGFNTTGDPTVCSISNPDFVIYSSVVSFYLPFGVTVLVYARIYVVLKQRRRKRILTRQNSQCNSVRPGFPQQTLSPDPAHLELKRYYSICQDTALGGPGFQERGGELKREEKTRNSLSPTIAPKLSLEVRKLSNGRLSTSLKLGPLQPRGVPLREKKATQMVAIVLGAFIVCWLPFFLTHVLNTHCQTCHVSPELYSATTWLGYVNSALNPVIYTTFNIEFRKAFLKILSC

[2] = molecular target: T1, DRD4 (D4.4 variant) wild-type (Homo sapiens, UniProt P21917); experiment: as above; conditions: DRD4; [3H]-methylspiperone (0.8-1.0 nM); read-out: Ki
T1 sequence (P21917 1-419): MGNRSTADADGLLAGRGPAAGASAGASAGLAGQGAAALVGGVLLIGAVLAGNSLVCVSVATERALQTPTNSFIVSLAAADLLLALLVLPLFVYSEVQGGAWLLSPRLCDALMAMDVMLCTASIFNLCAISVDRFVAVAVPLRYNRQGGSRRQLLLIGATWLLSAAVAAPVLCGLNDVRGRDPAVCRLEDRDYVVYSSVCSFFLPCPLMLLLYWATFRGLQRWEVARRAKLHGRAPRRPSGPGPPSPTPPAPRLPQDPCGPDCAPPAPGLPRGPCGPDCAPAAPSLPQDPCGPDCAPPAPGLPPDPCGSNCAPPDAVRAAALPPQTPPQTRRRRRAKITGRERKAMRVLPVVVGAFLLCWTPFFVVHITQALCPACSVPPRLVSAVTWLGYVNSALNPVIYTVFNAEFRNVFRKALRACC

DRD2 (D2 long receptor) [3] = molecular target: T2, DRD2 (D2 long receptor) (Homo sapiens, UniProt P14416); experiment: Gαi/o-mediated cAMP inhibition (GloSensor split-luciferase cAMP reporter), HEK293T; format: cell-based; conditions: for Response, Fig_S11b dose-response: individual replicates;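 as to all read-outs here: compounds applied 15 min at room temperature, then luciferin plus 400 nM isoproterenol to raise cAMP through endogenous β2-adrenergic receptors, luminescence read 15 min later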
T2 sequence (P14416 whole entry): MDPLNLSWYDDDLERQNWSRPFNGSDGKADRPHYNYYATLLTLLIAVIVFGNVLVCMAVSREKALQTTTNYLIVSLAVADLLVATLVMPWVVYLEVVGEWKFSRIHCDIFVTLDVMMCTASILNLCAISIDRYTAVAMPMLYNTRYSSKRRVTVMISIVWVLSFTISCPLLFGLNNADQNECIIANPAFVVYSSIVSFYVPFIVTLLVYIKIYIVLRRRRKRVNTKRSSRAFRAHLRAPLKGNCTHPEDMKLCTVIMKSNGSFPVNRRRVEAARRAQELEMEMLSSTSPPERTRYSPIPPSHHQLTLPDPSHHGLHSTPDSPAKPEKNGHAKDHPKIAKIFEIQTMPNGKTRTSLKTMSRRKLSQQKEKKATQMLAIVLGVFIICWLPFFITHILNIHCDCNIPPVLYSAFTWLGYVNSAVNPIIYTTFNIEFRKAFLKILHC

DRD4 (D4.4 variant) [4] = molecular target: T3, DRD4 (D4.4 variant) (Homo sapiens, UniProt P21917); experiment: Gαi/o-mediated cAMP inhibition (GloSensor); format: cell-based; conditions: DRD4; agonist, cAMP inhibition; read-out: EC50 ± SEM
T3 sequence (P21917 1-419): T1 sequence (P21917 1-419)

DRD2 (D2 long receptor) [5] = molecular target: T2, DRD2 (D2 long receptor); experiment: β-arrestin2 recruitment (Tango), HTLA cells; format: cell-based; conditions: for Response, Fig_S11c dose-response: individual replicates; as to response, Fig S11c dose-response source data: reference of the scale not given here
DRD3 = DRD3 (Homo sapiens, UniProt P35462); experiment: β-arrestin2 recruitment (Tango); format: cell-based; conditions: DRD3; Tango; read-out: EC50 ± SEM
Sequence of DRD3 (P35462 whole entry): as the sequence (P35462 whole entry) above

DRD4 (D4.4 variant) [6] = molecular target: T3, DRD4 (D4.4 variant); experiment: β-arrestin2 recruitment (Tango); format: cell-based; conditions: DRD4; Tango; read-out: EC50 ± SEM
DRD2 F1103.28A = DRD2 F1103.28A (Homo sapiens, UniProt P14416, F110A); format: binding; parameters: expressed in transfected cells; host or cells: HEK293T (ATCC CRL-11268); conditions: DRD2 F1103.28A
Sequence of DRD2 F1103.28A (P14416 whole entry F110A): as the sequence (P14416 whole entry) above, with F110A counted along it

Sequence of DRD2 (D2 long receptor) wild-type (P14416 whole entry): as the sequence (P14416 whole entry) above

Question: For `CC(NCC1(O)CCCCC1)c1cc2cccc(O)c2o1.Cl` (stereo not drawn) [O2LE6], which Ki [1] is on record?
Answer: > 10 µM

Question: And the Ki (DRD3 wild-type; DRD3, [3H]-methylspiperone (0.8-1.0 nM), read-out: Ki)?
Answer: 3.47 µM

Question: What about the “pKi ± SEM” value (DRD3 wild-type; DRD3 wild-type) of the same compound?
Answer: 5.46±0.10

Question: And the Ki [2]?
Answer: > 10 µM

Question: And the EC50 (DRD2 (D2 long receptor) [3]; DRD2, agonist, Gαi/o-mediated cAMP inhibition, read-out: EC50 ± SEM)?
Answer: > 10 µM

Question: And the “Response, Fig_S11b dose-response” value (DRD2 (D2 long receptor) [3]; Log[Drug] -5)?
Answer: 2.57 and -6.2065 and 9.406 and 22.878 and 21.3481 and -11.9066 and 1.916

Question: And the “Response, Fig_S11b dose-response” value (DRD2 (D2 long receptor) [3]; Log[Drug] -5.52)?
Answer: 6.28 and 4.868 and 17.437 and 8.981 and 7.366 and 4.306 and -2.8216 and 10.8339 and 3.867

Question: What about the “Response, Fig_S11b dose-response” value (DRD2 (D2 long receptor) [3]; Log[Drug] -6) of the same compound?
Answer: -4.6609 and -0.5921

Question: And the “Response, Fig_S11b dose-response” value (DRD2 (D2 long receptor) [3]; Log[Drug] -6.52)?
Answer: -4.5336 and 10.5534 and 15.2708 and -15.8082 and -11.6836

Question: What about the “Response, Fig_S11b dose-response” value (DRD2 (D2 long receptor) [3]; Log[Drug] -7) of the same compound?
Answer: 2.459 and 17.8523 and -17.1557 and -9.0384 and -5.1068 and -4.6609 and -7.169

Question: What about the “Response, Fig_S11b dose-response” value (DRD2 (D2 long receptor) [3]; Log[Drug] -7.52) of the same compound?
Answer: -18.3605 and -3.0503 and 3.567 and -20.6831 and -11.3334 and 8.381 and -20.49

Question: And the “Response, Fig_S11b dose-response” value (DRD2 (D2 long receptor) [3]; Log[Drug] -8)?
Answer: -13.294 and 23.168 and -7.9784 and -20.598 and -10.4409 and -9.4634 and -20.4343

Question: What about the “Response, Fig_S11b dose-response” value (DRD2 (D2 long receptor) [3]; Log[Drug] -8.52) of the same compound?
Answer: 0.7703 and -10.5254 and -9.1135 and 3.329 and -12.6933 and -0.7512 and -34.034 and -13.4672 and -11.5164

Question: What about the “Response, Fig_S11b dose-response” value (DRD2 (D2 long receptor) [3]; Log[Drug] -9) of the same compound?
Answer: 2.182 and 8.19 and 4.563 and -3.0886 and 6.152 and -13.6902 and -0.3134

Question: What about the “Response, Fig_S11b dose-response” value (DRD2 (D2 long receptor) [3]; Log[Drug] -9.52) of the same compound?
Answer: -7.1755 and -21.4059 and -24.6779 and -18.9406 and -5.1068 and 6.486

Question: And the “Response, Fig_S11b dose-response” value (DRD2 (D2 long receptor) [3]; Log[Drug] -10)?
Answer: -19.2464 and 38.0628 and -6.9263 and -30.0753 and -2.0262 and 6.261 and -22.9424 and -9.1198 and -15.8639

Question: What about the “Response, Fig_S11b dose-response” value (DRD2 (D2 long receptor) [3]; Log[Drug] -10.52) of the same compound?
Answer: -15.9241 and -8.3937 and 23.898 and 3.978 and -13.6344

Question: And the “Response, Fig_S11b dose-response” value (DRD2 (D2 long receptor) [3]; Log[Drug] -11)?
Answer: -21.7935 and 4.314 and -22.2642 and -20.2156 and 2.7337 and -9.1755

Question: What about the “Response, Fig_S11b dose-response” value (DRD2 (D2 long receptor) [3]; Log[Drug] -11.52) of the same compound?
Answer: 5.117 and 27.9022 and 12.3983 and -0.5921 and -2.4314 and -6.9461

Question: What about the “Response, Fig_S11b dose-response” value (DRD2 (D2 long receptor) [3]; Log[Drug] -12) of the same compound?
Answer: 6.64 and -0.2818 and -18.9406 and 16.0358 and 13.8258 and -18.8737 and -20.713 and -0.5921

Question: And the EC50 (DRD4 (D4.4 variant) [4])?
Answer: > 10 µM

Question: What about the EC50 (DRD2 (D2 long receptor) [5]; DRD2, β-arrestin2 recruitment (Tango), read-out: EC50 ± SEM) of the same compound?
Answer: > 10 µM

Question: And the “response, Fig_S11c dose-response source data” value (DRD2 (D2 long receptor) [5]; Fig_S11c, Log[Drug] -5, replicate values)?
Answer: 16.7808 and 14.8237 and 14.215 and 18.5342 and 14.2817 and 15.7604 and 11.4227 and 17.086 and 21.2736

Question: What about the “Response, Fig_S11c dose-response” value (DRD2 (D2 long receptor) [5]; Log[Drug] -6.52) of the same compound?
Answer: 3.717

Question: What about the “Response, Fig_S11c dose-response” value (DRD2 (D2 long receptor) [5]; Log[Drug] -7) of the same compound?
Answer: 2.811 and 3.15 and 4.053 and 3 and 2.812 and 3.498 and 5.616 and 3.218 and 2.5633

Question: And the “Response, Fig_S11c dose-response” value (DRD2 (D2 long receptor) [5]; Log[Drug] -7.52)?
Answer: 2.895 and 3.102 and 3.119 and 2.48 and 2.571 and 2.809 and 3.052 and 1.009 and 2.448

Question: What about the “Response, Fig_S11c dose-response” value (DRD2 (D2 long receptor) [5]; Log[Drug] -8) of the same compound?
Answer: 2.815 and 2.652 and 3.1462 and 2.523 and 2.762 and 2.623 and 2.494 and 3.6148 and 1.539

Question: And the “Response, Fig_S11c dose-response” value (DRD2 (D2 long receptor) [5]; Log[Drug] -8.52)?
Answer: 3.296 and 2.4132 and 3.209 and 2.229 and 3.453 and 2.266 and 3.066 and 1.184 and 1.383

Question: And the “Response, Fig_S11c dose-response” value (DRD2 (D2 long receptor) [5]; Log[Drug] -9)?
Answer: 2.8445 and 2.312 and 2.494 and 3.046 and 2.174 and 2.343 and 1.927 and 6.732 and 6.534

Question: What about the “Response, Fig_S11c dose-response” value (DRD2 (D2 long receptor) [5]; Log[Drug] -9.52) of the same compound?
Answer: 2.362 and 2.4976 and 2.923 and 2.359 and 2.154 and 2.345 and 3.43 and 1.364 and 3.781

Question: What about the “Response, Fig_S11c dose-response” value (DRD2 (D2 long receptor) [5]; Log[Drug] -10) of the same compound?
Answer: 3.645 and 2.627 and 2.787 and 2.06 and 2.1828 and 2.292 and 2.6786 and 2.1344 and 1.378

Question: And the “Response, Fig_S11c dose-response” value (DRD2 (D2 long receptor) [5]; Log[Drug] -10.52)?
Answer: 2.259 and 2.232 and 2.66 and 2.1982 and 2.238 and 2.169 and 4.722 and 1.378 and 2.323

Question: And the “Response, Fig_S11c dose-response” value (DRD2 (D2 long receptor) [5]; Log[Drug] -11)?
Answer: 2.37 and 2.502 and 2.312 and 2.1828 (2×) and 2.084 and 1.9407 and 3.057 and 2.849

Question: And the “Response, Fig_S11c dose-response” value (DRD2 (D2 long receptor) [5]; Log[Drug] -11.52)?
Answer: 2.185 and 2.208 and 2.688 and 2.5566 and 2.233 and 3.071 and 1.779 and 1.392 and 2.508

Question: And the “Response, Fig_S11c dose-response” value (DRD2 (D2 long receptor) [5]; Log[Drug] -12)?
Answer: 2.133 and 2.211 and 2.421 and 5.046 and 2.173 and 2.317 and 0.6771 and 1.599 and 1.023

Question: And the EC50 (DRD3)?
Answer: > 10 µM

Question: And the EC50 (DRD4 (D4.4 variant) [6])?
Answer: > 10 µM

Question: And the “pKi ± SEM” value (DRD2 F1103.28A)?
Answer: 5.24±0.17

Question: What about the Ki (DRD2 F1103.28A; read-out: Ki) of the same compound?
Answer: 5.75 µM
